Laboratory results reported in patent US4621090A, “Antifungal compositions” (Toyo Soda Manufacturing Co., Ltd., priority 1983, dated 1986).
Values after ≈ are worked out from the molar mass of the structure shown. Read-outs that look alike come from different tables or passages of the source.

What was measured:
[1] = test system: Trichophyton mentagraphytes MTU-19031; assay: Minimum inhibitory concentration, anti-Trichophyton mentagraphytes activity test, strain MTU-19031; type: cell-based; settings: Trichophyton, MTU19031, Sabouraud's dextrose agar, 27° C., a week
Description: (§1) The activity was tested by the 10 time-step dilution test, using the Sabouraud's dextrose agar culture medium (2% dextrose, 1% pepton and 1.5% agar; pH 6.5±). A platinum loopful (about 10 μl) spore suspension (prepared from a reserved strain of Trichlophyton mentagraphytes and containing 1×10^6 cells/ml) was applied in the form of drawn lines on a plate of a culture medium containing the active ingredients. The culture medium plate was kept at 27° C. for a week and then visually observed to see if any colonies had formed. The minimum inhibitory concentration was defined as the minimum concentration with which formation of distinct colonies on the culture medium plate was not observed.

[2] = test system: Trichophyton violaceum MTU-19021; assay: Growth inhibition test; type: cell-based; settings: read-out: Minimum inhibitory concentration
[3] = test system: Epidermophyton floccosum MTU-21007; assay: Growth inhibition test; type: cell-based; settings: MTU21007, 336 h, read-out: Minimum inhibitory concentration
[4] = test system: Trichophyton mentagraphytes MTU-19024; assay: Minimum inhibitory concentration, anti-Trichophyton mentagraphytes activity test, strain MTU-19024; type: cell-based; settings: Trichophyton, MTU19024, Sabouraud's dextrose agar, 27° C., a week
Description: as §1

[5] = test system: Microsporum canis MTU-20010; assay: Growth inhibition test; type: cell-based; settings: read-out: Minimum inhibitory concentration
[6] = test system: Microsporum gypseum MTU-20005; assay: Growth inhibition test; type: cell-based; settings: Nannizzia gypsea, read-out: Minimum inhibitory concentration
[7] = test system: Phialophora verrucosa MTU-23001; assay: Growth inhibition test; type: cell-based; settings: read-out: Minimum inhibitory concentration
[8] = test system: Trichophyton mentagraphytes; assay: Medical treatment of guinea pigs experimentally infected with Trichophyton mentagraphytes; settings: 1% emulsion once a day; for Scope of symptoms (0-4): mean of 6 guinea pigs; for Reversed cultivation: skin cut into 10 pieces, cultivated 14 days at 27° C.
[9] = test system: Blastomyces dermatitidis MTU-17009; assay: Growth inhibition test; type: cell-based; settings: MTU17009, 336 h, read-out: Minimum inhibitory concentration
[10] = test system: Cryptococcus neoformans MTU-13002; assay: Growth inhibition test; type: cell-based; settings: MTU13002, 48 h, read-out: Minimum inhibitory concentration
[11] = test system: Aspergillus niger MTU-06051; assay: Growth inhibition test; type: cell-based; settings: read-out: Minimum inhibitory concentration
ICR mice [12] = assay: Acute toxicity test using ICR mice; type: in vivo
Description: The acute toxicity was tested by applying active ingredients of the antifungal compositions of this invention as shown in Table 4 to ICR mice (male, age-5 weeks, 25 g ±weight, 5 mice in each group). Observation continued for 3 more weeks starting from the last administration.

[13] = test system: Fusarium pedrosoi MTU-22009; assay: Growth inhibition test; type: cell-based; settings: MTU22009, 168 h, after 7 days cultivation at 27° C., read-out: Minimum inhibitory concentration
[14] = test system: Fonsecaea compactum MTU-22023; assay: Growth inhibition test; type: cell-based; settings: Fonsecaea compacta, read-out: Minimum inhibitory concentration
ICR mice [15] = assay: Skin irritation test using ICR mice; type: in vivo; settings: Cutaneous, 1% direct application once a day for 14 consecutive days
[16] = test system: Histoplasma capsulatum MTU-16001; assay: microbe, parasite or virus in culture; type: cell-based; settings: MTU16001, 336 h, read-out: Minimum inhibitory concentration
[17] = test system: Aspergillus fumigatus MTU-06002; assay: Growth inhibition test; type: cell-based; settings: MTU06002, 168 h, read-out: Minimum inhibitory concentration
[18] = MTU19021, 168 h, after 7 days cultivation at 27° C.
[19] = MTU19021, 336 h, after 14 days cultivation at 27° C.
[20] = after 14 days cultivation at 27° C.
[21] = MTU20010, 168 h, after 7 days cultivation at 27° C.
[22] = MTU20010, 336 h, after 14 days cultivation at 27° C.
[23] = MTU20005, 168 h, after 7 days cultivation at 27° C.
[24] = MTU20005, 336 h, after 14 days cultivation at 27° C.
[25] = Intraperitoneal, 100 mg/kg once a day for 6 consecutive days
[26] = Intraperitoneal, 500 mg/kg once
[27] = Oral, 500 mg/kg once a day for 6 consecutive days

Row | SMILES | MIC [1] | MIC [2, 18] | MIC [2, 19] | MIC [3, 20] | MIC [4] | MIC [5, 21] | MIC [5, 22] | MIC [6, 23] | MIC [6, 24] | Scope of symptoms (0-4) ([8]; 5 days after the infection) | Scope of symptoms (0-4) ([8]; 9 days after the infection) | Scope of symptoms (0-4) ([8]; 13 days after the infection) | Scope of symptoms (0-4) ([8]; 17 days after the infection) | Scope of symptoms (0-4) ([8]; 21 days after the infection) | Reversed cultivation [8] | Number of deaths (ICR mice [12]; [25]) | Number of symptomatic weight decrease (ICR mice [12]; [25]) | Number of deaths (ICR mice [12]; [26]) | Number of symptomatic weight decrease (ICR mice [12]; [26]) | Number of deaths (ICR mice [12]; [27]) | other results
1 | COc1cccc(N(C)C(=S)Oc2cccc(C(C)(C)C)c2)n1 [compound 28, O--3-t-Butylphenyl N--(6-methoxy-2-pyridyl)-N--methylthiocarbamate] | 0.5 µg/mL (≈ 1.51 µM) | 0.5 µg/mL (≈ 1.51 µM) | 0.5 µg/mL (≈ 1.51 µM) | 0.5 µg/mL (≈ 1.51 µM) | 0.5 µg/mL (≈ 1.51 µM) | 0.5 µg/mL (≈ 1.51 µM) | 0.5 µg/mL (≈ 1.51 µM) | 0.5 µg/mL (≈ 1.51 µM) | 0.5 µg/mL (≈ 1.51 µM) | – | – | – | – | – | – | – | – | – | – | – | –
2 | COc1cccc(N(C)C(=S)Oc2cccc(C(C)C)c2)n1 [compound 48, O--3-Isopropylphenyl N--(6-methoxy-2-pyridyl)-N--methylthiocarbamate] | 0.5 µg/mL (≈ 1.58 µM) | 0.5 µg/mL (≈ 1.58 µM) | 0.5 µg/mL (≈ 1.58 µM) | 0.5 µg/mL (≈ 1.58 µM) | 0.5 µg/mL (≈ 1.58 µM) | 0.5 µg/mL (≈ 1.58 µM) | 0.5 µg/mL (≈ 1.58 µM) | 0.5 µg/mL (≈ 1.58 µM) | 0.5 µg/mL (≈ 1.58 µM) | – | – | – | – | – | – | – | – | – | – | – | –
3 | COc1cccc(N(C)C(=S)Oc2ccc3ccccc3c2)n1 [compound 7, O--2-Naphthyl N--methyl-N--(6-methoxy-2-pyridyl)thiocarbamate] | 0.05 µg/mL (≈ 0.154 µM) | 0.05 µg/mL (≈ 0.154 µM) | 0.05 µg/mL (≈ 0.154 µM) | 0.05 µg/mL (≈ 0.154 µM) | 0.05 µg/mL (≈ 0.154 µM) | 0.05 µg/mL (≈ 0.154 µM) | 0.05 µg/mL (≈ 0.154 µM) | 0.05 µg/mL (≈ 0.154 µM) | 0.05 µg/mL (≈ 0.154 µM) | 0 | 1.33 | 1.66 | 0.66 | 0.33 | 1/60 | 0 | 0 | 0 | 0 | 0 | MIC ([7]; MTU23001, 168 h, after 7 days cultivation at 27° C.): 0.5 µg/mL (≈ 1.54 µM); MIC ([7]; MTU23001, 336 h, after 14 days cultivation at 27° C.): 0.5 µg/mL (≈ 1.54 µM); MIC [9, 20]: 0.5 µg/mL (≈ 1.54 µM); MIC ([10]; after 2 days cultivation at 27° C.): 0.05 µg/mL (≈ 0.154 µM); MIC ([11]; MTU06051, 168 h, after 7 days cultivation at 27° C.): 0.05 µg/mL (≈ 0.154 µM); MIC ([11]; MTU06051, 336 h, after 14 days cultivation at 27° C.): 0.05 µg/mL (≈ 0.154 µM); Number of symptomatic weight decrease (ICR mice [12]; [27]): 0; MIC [13]: 0.5 µg/mL (≈ 1.54 µM); MIC ([14]; MTU22023, 168 h, after 7 days cultivation at 27° C.): 0.5 µg/mL (≈ 1.54 µM); MIC ([14]; MTU22023, 336 h, after 14 days cultivation at 27° C.): 0.5 µg/mL (≈ 1.54 µM); Number of skin irritation symptoms (ICR mice [15]): 0; MIC [16]: 0.5 µg/mL (≈ 1.54 µM); MIC ([17]; after 7 days cultivation at 27° C.): 0.5 µg/mL (≈ 1.54 µM)
4 | COc1cccc(N(C)C(=S)Oc2ccc3c(c2)CCCC3)n1 [compound 11, O--5,6,7,8-Tetrahydro-2-naphthyl N--N--(6-methoxy-2-pyridyl)-N--methylthiocarbamate] | 0.05 µg/mL (≈ 0.152 µM) | – | – | – | 0.05 µg/mL (≈ 0.152 µM) | – | – | – | – | 0.66 | 2.0 | 2.0 | 0 | 0 | 1/60 | 0 | 0 | 0 | 0 | 0 | MIC ([7]; MTU23001, 168 h): 0.5 µg/mL (≈ 1.52 µM); MIC ([7]; MTU23001, 336 h): 0.5 µg/mL (≈ 1.52 µM); MIC [9]: 0.5 µg/mL (≈ 1.52 µM); MIC [10]: 0.5 µg/mL (≈ 1.52 µM); MIC ([11]; MTU06051, 168 h): 0.05 µg/mL (≈ 0.152 µM); MIC ([11]; MTU06051, 336 h): 0.05 µg/mL (≈ 0.152 µM); Number of symptomatic weight decrease (ICR mice [12]; [27]): 0; MIC ([14]; MTU22023, 168 h): 0.5 µg/mL (≈ 1.52 µM); MIC ([14]; MTU22023, 336 h): 0.5 µg/mL (≈ 1.52 µM); MIC ([2]; MTU19021, 168 h): 0.05 µg/mL (≈ 0.152 µM); MIC ([2]; MTU19021, 336 h): 0.05 µg/mL (≈ 0.152 µM); Number of skin irritation symptoms (ICR mice [15]): 0; MIC [3]: 0.05 µg/mL (≈ 0.152 µM); MIC ([5]; MTU20010, 168 h): 0.05 µg/mL (≈ 0.152 µM); MIC ([5]; MTU20010, 336 h): 0.05 µg/mL (≈ 0.152 µM); MIC [16]: 0.5 µg/mL (≈ 1.52 µM); MIC [17]: 0.5 µg/mL (≈ 1.52 µM); MIC ([6]; MTU20005, 168 h): 0.5 µg/mL (≈ 1.52 µM); MIC ([6]; MTU20005, 336 h): 0.05 µg/mL (≈ 0.152 µM)
5 | COc1cccc(N(C)C(=S)Oc2ccc(SC)c(C)c2)n1 [compound 67, O--3-Methyl-4-methylthiophenyl N--(6-methoxy-2-pyridyl)-N--methylthiocarbamate] | 0.5 µg/mL (≈ 1.49 µM) | – | – | – | 0.5 µg/mL (≈ 1.49 µM) | – | – | – | – | – | – | – | – | – | – | – | – | – | – | – | –
